The values below come from patent US12492224B2, “Bicyclic peptide ligands specific for PD-L1” (BicycleTx Limited, priority 2018, dated 2025).

Where no end group is shown, it is not given here. [ ]: non-standard residue; d: D form. hArg = N=C(N)NCCCC[C@H](N)C(=O)O; Aad = N[C@@H](CCCC(=O)O)C(=O)O; Nva = CCC[C@H](N)C(=O)O

One may read the Kd as the equilibrium constant for the complex coming apart.

Assay [1] has as its target T1, human PD-L1 (Homo sapiens, UniProt Q9NZQ7).
T1 construct: purchased Sino Biologicals or R&D systems
The assay is described as follows: PD-L1 SPR Binding Assay (Biacore), human. Conditions: 25° C. Here is the method:
The protein was desalted to remove uncoupled biotin using spin columns into PBS. For analysis of binding, a Biacore 3000 instrument was used utilizing a CM5 sensor chip (GE Healthcare). Streptavidin was immobilized on the chip using standard amine-coupling chemistry at 25° C. with HBS-N (10 mM HEPES, 0.15 M NaCl, pH 7.4) as the running buffer. The carboxymethyl dextran surface was activated with a 12 min injection of a 1:1 ratio of 0.4 M 1-ethyl-3-(3-dimethylaminopropyl) carbodiimide hydrochloride (EDC)/0.1 M N-hydroxy succinimide (NHS) at a flow rate of 10 μl/min. For capture of streptavidin, protein was diluted to 0.1 mg/ml in 10 mM sodium acetate (pH 4.5) and captured by injecting 70 μl onto the activated chip surface. Residual activated groups were blocked with a 7 min injection of 1 M ethanolamine (pH 8.5). Biotinylated PD-L1 stock was diluted 1:100 in HBS-N and captured on one flow cell at 5 μl/min to a level of 1000-1300 RU. Buffer was changed to PBS/0.05% Tween 20 and a dilution series of the peptides was prepared in this buffer with a final DMSO concentration of 0.5%. The top concentrations were 200 nM or 500 nM with 6 2-fold dilutions. The SPR analysis was run at 25° C. at a flow rate of Flow rate 50 μl/min with 60 seconds association and 400 seconds disassociation. Data were corrected for DMSO excluded volume effects. All data were double-referenced for blank injections and reference surface using standard processing procedures and data processing and kinetic fitting were performed using Scrubber software, version 2.0c (Biologic Software). Data were fitted using mass transport model allowing for mass transport effects where appropriate.
(In general: In SPR one partner is held on a chip, and binding of the other changes the refractive index at the surface.)

In assay [2] the target is T2, PD-1/PD-L1 interaction (Homo sapiens, UniProt Q9NZQ7).
T2 construct: host or cells: CHO-K1 (human PD-L1) and Jurkat (human PD-1, NFAT-luciferase)
The assay is described as follows: PD-1/PD-L1 Blockade Bioassay (Jurkat PD-1 NFAT-luciferase / CHO-K1 PD-L1). Particulars: FIG. 1 and Table 6. The class given is cell-based. Here is the method: Effector Jurkat cells engineered to overexpress human PD-1 and express a luciferase gene under the NFAT response element were purchased from Promega. Target CHO-K1 cells which overexpress human PD-L1 and an engineered cell surface protein designed to activate the Jurkat's T cell receptor in an antigen-independent manner were also purchased from Promega. CHO-K1 cells were plated the day before the assay in Ham's F-12 Medium+10% FBS and were allowed to adhere to the plate. On the day of the assay, media was removed and Jurkat cells were plated with a dose response of test articles in RPMI1640 media with 1% FBS (80 μL total volume per well). […] After 6 hours of incubation at 37° C., 5% CO2, 80 μL of Bio-Glo reagent (Promega) was added to each well and allowed to equilibrate for 10 minutes at room temperature. Luminescence was read on the Clariostar plate reader (BMG LabTech). Fold induction was calculated by dividing the luminescence signal by the average of the background wells (wells with both cell lines and no test article). Data was graphed in Prism and fit to a 4-parameter logistic curve.

T2 sequence (Q9NZQ7 19-290): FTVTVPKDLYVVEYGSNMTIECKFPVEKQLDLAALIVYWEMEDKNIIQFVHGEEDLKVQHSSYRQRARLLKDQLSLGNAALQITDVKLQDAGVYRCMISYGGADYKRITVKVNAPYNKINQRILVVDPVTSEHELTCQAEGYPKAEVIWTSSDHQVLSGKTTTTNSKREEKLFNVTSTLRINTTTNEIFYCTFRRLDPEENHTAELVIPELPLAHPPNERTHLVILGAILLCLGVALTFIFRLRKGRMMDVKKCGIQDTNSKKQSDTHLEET
T1 sequence (Q9NZQ7 19-290): as above

As for “Ac-DKCS[Aad]GWLTMCQKLHLCPSH-COOH [BCY11853]”, the Kd in assay [1] came to 17.6 nM. On the same count and under the same terms, with “Ac-EKCS[Aad]GWLTMCLKLHLC (cysteine pairing not given here) [BCY11826]” the figure was 18.2 nM; with “Ac-KCS[Aad]GWLTMCLKLHLC (cysteine pairing not given here) [BCY11824]”, 60 nM.

Turning to Ac-SDKCS[Aad]GWLTMCLKLHLCA [BCY11828], the dissociation constant (Kd) in assay [1] amounted to 16.6 nM. In assay [1], “Ac-SEKCS[Aad]GWLTMCLKLHLC (cysteine pairing not given here) [BCY11825]” registered a Kd of 28.8 nM. Same read-out and setting: to “Ac-SEKCS[Aad]GWLTMCLKLHLCPSH (cysteine pairing not given here) [BCY11831]” belongs 13.2 nM; to “Ac-[hArg]CS[Aad]GWLTMCLKLHLC (cysteine pairing not given here) [BCY11827]”, 30 nM.

SDKCSAGWLTMCQKLH[Nle]CA [BCY10074] came in with a Kd in assay [1] of 36.1 nM. Still for that read-out and setting: to SDKCSAGWLTMCQKLH[Nva]CA [BCY10083] belongs 75 nM.

As for SDKCSAGWLTMCQKL[Aib]LCA [BCY10073], binding in assay [1] was characterised by a dissociation constant (Kd) of 15.8 nM. Same read-out and setting: with SDKCSAGWLTMCQK[Nle]HLCA [BCY10071] the figure was 58.2 nM; with “SDKCSAGWLTMCQK[Nva]HLCA (cysteine pairing not given here) [BCY10084]”, 43.2 nM. Same read-out and setting: with SDKCSAGWLTMCQ[Nle]LHLCA [BCY10068] the figure was 54.5 nM; with SDKCSAGWLTMC[Chg]KLHLCA [BCY10066], 14.4 nM. Same read-out and setting: with SDKCSAGWLT[Nle]CQKLHLCA [BCY10058] the figure was 59.7 nM; with SDKCS[Abu]GWLTMCQKLHLCA [BCY10055], 27.9 nM.

In assay [1], SDKCS[Aib]GWLTMCQKLHLCA [BCY10054] gave a Kd of 31.2 nM. On the same count and under the same terms, to SDKCS[Nle]GWLTMCQKLHLCA [BCY10062] belongs 23 nM.

Take SD[HArg]CSAGWLTMCQKLHLCA [BCY10052]: the equilibrium dissociation constant (Kd) in assay [1] was 22.3 nM. As to [Ac]SDKCSAGWLTMCKQLNLCPSH [BCY10467], the “ability to block PD-1/PD-L1 interaction between PD-1 expressing T cells and CHO-K1 stable expressing PD-L1” value (“ability” below) in assay [2] is “demonstrated the ability to block PD-1/PD-L1 interaction”. On to “[Ac]SDKCSAGWLTMCKQLNLCPSH-COOH [BCY10939]”, for which the “ability” value in assay [2] is on record as “demonstrated the ability to block PD-1/PD-L1 interaction”.

With “[Ac]SD[HArg]CS[Nle]GWLT[hPhe]CLKL[Aib]LCPSH [BCY10959]”, the “ability” value in assay [2] was “demonstrated the ability to block PD-1/PD-L1 interaction”.
